Assays:
Glucocorticoid receptor [1] = target: T1, Glucocorticoid receptor (Homo sapiens, UniProt P04150); experiment: Transactivation of glucocorticoid receptor in human HepG2 cells assessed as induction of TAT measuring degradation of tyrosine to p-hydroxy phenyl pyruvate at 1 uM relative to untreated control; type: cell-based; settings: hepg2, 1 µM
T1 sequence (P04150 whole entry): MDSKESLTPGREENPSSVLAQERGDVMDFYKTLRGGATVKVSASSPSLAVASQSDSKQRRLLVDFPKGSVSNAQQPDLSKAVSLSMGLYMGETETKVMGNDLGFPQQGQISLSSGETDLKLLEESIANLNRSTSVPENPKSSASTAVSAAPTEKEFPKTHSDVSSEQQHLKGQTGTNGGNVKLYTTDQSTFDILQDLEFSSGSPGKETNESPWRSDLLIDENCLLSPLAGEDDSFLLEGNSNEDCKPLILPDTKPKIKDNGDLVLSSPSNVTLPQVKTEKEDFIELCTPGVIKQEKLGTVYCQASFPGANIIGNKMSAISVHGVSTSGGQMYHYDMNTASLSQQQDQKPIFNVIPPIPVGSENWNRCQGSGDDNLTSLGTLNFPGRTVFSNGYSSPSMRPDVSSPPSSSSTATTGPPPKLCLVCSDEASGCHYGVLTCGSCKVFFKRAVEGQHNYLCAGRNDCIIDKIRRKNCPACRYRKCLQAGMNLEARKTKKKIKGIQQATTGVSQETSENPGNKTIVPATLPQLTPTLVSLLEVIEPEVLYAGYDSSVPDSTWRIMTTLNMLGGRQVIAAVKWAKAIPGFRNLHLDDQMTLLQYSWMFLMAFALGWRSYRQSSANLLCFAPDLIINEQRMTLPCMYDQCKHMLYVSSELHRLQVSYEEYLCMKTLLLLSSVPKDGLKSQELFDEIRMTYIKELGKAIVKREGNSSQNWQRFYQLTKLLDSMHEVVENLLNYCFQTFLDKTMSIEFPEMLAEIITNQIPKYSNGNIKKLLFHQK

Glucocorticoid receptor [2] = target: T2, Glucocorticoid receptor (Rattus norvegicus, UniProt P06536); experiment: Transactivation of glucocorticoid receptor in rat H42E cells assessed as induction of TAT measuring degradation of tyrosine to p-hydroxy phenyl pyruvate at 1 uM relative to prednisolone; type: cell-based; settings: read-out: Efficacy
T2 sequence (P06536 whole entry): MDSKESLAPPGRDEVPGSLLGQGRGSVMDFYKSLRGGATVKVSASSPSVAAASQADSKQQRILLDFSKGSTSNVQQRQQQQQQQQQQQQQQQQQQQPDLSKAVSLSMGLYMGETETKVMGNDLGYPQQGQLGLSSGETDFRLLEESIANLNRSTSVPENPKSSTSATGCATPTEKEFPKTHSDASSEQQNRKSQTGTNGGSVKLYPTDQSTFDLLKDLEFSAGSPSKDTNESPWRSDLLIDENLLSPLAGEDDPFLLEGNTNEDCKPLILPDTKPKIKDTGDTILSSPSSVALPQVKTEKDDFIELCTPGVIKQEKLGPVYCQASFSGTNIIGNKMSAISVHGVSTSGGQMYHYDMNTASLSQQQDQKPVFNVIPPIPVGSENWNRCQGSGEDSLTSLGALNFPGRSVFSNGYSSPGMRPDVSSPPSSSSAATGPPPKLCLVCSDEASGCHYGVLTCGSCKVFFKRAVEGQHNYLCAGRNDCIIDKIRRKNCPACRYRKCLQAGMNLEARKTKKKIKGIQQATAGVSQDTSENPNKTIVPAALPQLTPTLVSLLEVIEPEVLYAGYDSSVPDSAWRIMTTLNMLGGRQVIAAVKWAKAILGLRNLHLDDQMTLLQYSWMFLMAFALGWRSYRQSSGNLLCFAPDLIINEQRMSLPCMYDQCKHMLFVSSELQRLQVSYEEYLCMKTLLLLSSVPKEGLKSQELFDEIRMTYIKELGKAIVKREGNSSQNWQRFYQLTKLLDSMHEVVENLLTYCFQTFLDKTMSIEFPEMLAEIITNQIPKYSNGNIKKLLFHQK

Glucocorticoid receptor [3] = target: T1, Glucocorticoid receptor; experiment: Transactivation of glucocorticoid receptor in human HepG2 cells assessed as induction of TAT measuring degradation of tyrosine to p-hydroxy phenyl pyruvate; type: cell-based; settings: read-out: IC50 (the source's name)
Glucocorticoid receptor [4] = target: T1, Glucocorticoid receptor; experiment: Transrepression activity at glucocorticoid receptor in human H292 cells assessed as inhibition of TNF-stimulated IL-8 production; type: cell-based
Glucocorticoid receptor [5] = target: T2, Glucocorticoid receptor; experiment: Transactivation of glucocorticoid receptor in rat H42E cells assessed as induction of TAT measuring degradation of tyrosine to p-hydroxy phenyl pyruvate; type: cell-based; settings: read-out: IC50 (the source's name)
[6] = AUC in Brown Norway rat at 10 mg/kg, po; type: ADME, organism-based; design: dose 10 mg/kg, route oral; settings: plasma
Rattus norvegicus [7] = experiment: Toxicity in Brown Norway rat allergic lung inflammation model assessed as decrease in thymus weight at 10 mg/kg, po for 3 days; type: organism-based; design: dose 10 mg/kg, route oral; scale not given: the % may be the effect or the level left; settings: in vivo, 72 h
Rattus norvegicus [8] = experiment: Antiinflammatory activity against Brown Norway rat allergic lung inflammation model assessed as total cell inhibition at 10 mg/kg, po for 3 days; type: functional; design: scale not given: the % may be the effect or the level left

Row | Efficacy (Glucocorticoid receptor [1]) [%] | Emax at 1 µM (Glucocorticoid receptor [2]) [%] | EC50 (Glucocorticoid receptor [3]) [nM] | IC50 (Glucocorticoid receptor [4]) [nM] | EC50 (Glucocorticoid receptor [5]) [nM] | AUC [6] [ng·h/mL] | SMILES | Activity (Rattus norvegicus [7]) [%] | Activity (Rattus norvegicus [8]) [%]
1 | 22 | 23 | 238 | 43.8 | 707 | – | C[C@]12C=CC(=O)C=C1CC[C@@H]1[C@@H]2[C@@H](O)C[C@@]2(C)[C@H]1CC[C@]2(O)C(=O)CSc1ccccn1 | – | –
2 | 8 | 6 | – | 17.6 | – | – | C[C@@H]1C[C@H]2[C@@H]3CCC4=CC(=O)C=C[C@]4(C)[C@H]3[C@@H](O)C[C@]2(C)[C@@]1(O)C(=O)CSc1nccc2ccccc12 | – | –
3 | 33 | 29 | – | 1.69 | – | – | Cc1cccc(SCC(=O)[C@@]2(O)[C@H](C)C[C@H]3[C@@H]4CCC5=CC(=O)C=C[C@]5(C)[C@H]4[C@@H](O)C[C@@]32C)n1 | – | –
4 | 19 | 45 | – | 46.5 | 19.2 | 5280 | C[C@@H]1C[C@H]2[C@@H]3CCC4=CC(=O)C=C[C@]4(C)[C@H]3[C@@H](O)C[C@]2(C)[C@@]1(O)C(=O)CSc1ccc2ccccc2n1 | 66 | 73
5 | 6 | 6 | – | 11.4 | – | – | Cc1ccnc(SCC(=O)[C@@]2(O)CC[C@H]3[C@@H]4CCC5=CC(=O)C=C[C@]5(C)[C@H]4[C@@H](O)C[C@@]32C)n1 | – | –
6 | – | 19 | – | – | – | 1220 | C[C@]12C=CC(=O)C=C1CC[C@@H]1[C@@H]2[C@@H](O)C[C@@]2(C)[C@H]1CC[C@]2(O)C(=O)CSc1nc2ccccc2s1 | 15 | 45
7 | 9 | 10 | – | 41.3 | – | – | CCn1c(SCC(=O)[C@@]2(O)CC[C@H]3[C@@H]4CCC5=CC(=O)C=C[C@]5(C)[C@H]4[C@@H](O)C[C@@]32C)nc2ccccc21 | – | –
8 | 54 | 3 | – | 37.9 | – | 1950 | C[C@@H]1C[C@H]2[C@@H]3CCC4=CC(=O)C=C[C@]4(C)[C@H]3[C@@H](O)C[C@]2(C)[C@@]1(O)C(=O)CSc1cnc2ccccc2n1 | 65 | 85
9 | 62 | 35 | 1000 | 5.8 | 230 | – | C[C@@H]1C[C@H]2[C@@H]3CCC4=CC(=O)C=C[C@]4(C)[C@H]3[C@@H](O)C[C@]2(C)[C@@]1(O)C(=O)CSc1nc2ccccc2s1 | – | –
10 | 21 | 29 | – | 17.2 | – | 2940 | C[C@]12C=CC(=O)C=C1CC[C@@H]1[C@@H]2[C@@H](O)C[C@@]2(C)[C@H]1CC[C@]2(O)C(=O)CSc1nc2ncccc2o1 | 9 | 56
11 | 10 | 2 | – | 68.7 | – | 606 | C[C@]12C=CC(=O)C=C1CC[C@@H]1[C@@H]2[C@@H](O)C[C@@]2(C)[C@H]1CC[C@]2(O)C(=O)CSc1ncc2ccccc2n1 | 11 | 46
12 | 42 | 9 | – | 305 | – | – | C[C@]12C=CC(=O)C=C1CC[C@@H]1[C@@H]2[C@@H](O)C[C@@]2(C)[C@H]1CC[C@]2(O)C(=O)CSc1nc(-c2ccccc2)cs1 | – | –
13 | 6 | 7 | – | 118 | – | – | C[C@]12C=CC(=O)C=C1CC[C@@H]1[C@@H]2[C@@H](O)C[C@@]2(C)[C@H]1CC[C@]2(O)C(=O)CSc1nc2cccnc2s1 | – | –
14 | 30 | 3 | – | 36 | – | – | C[C@@H]1C[C@H]2[C@@H]3CCC4=CC(=O)C=C[C@]4(C)[C@H]3[C@@H](O)C[C@]2(C)[C@@]1(O)C(=O)CSc1nc2ccccc2[nH]1 | – | –
15 | 57 | 65 | 80.3 | 5.1 | 740 | – | C[C@@H]1C[C@H]2[C@@H]3CCC4=CC(=O)C=C[C@]4(C)[C@H]3[C@@H](O)C[C@]2(C)[C@@]1(O)C(=O)CSc1nnc(-c2ccccc2)o1 | – | –
16 | 52 | 56 | 262 | 70.2 | 361 | 1200 | C[C@]12C=CC(=O)C=C1CC[C@@H]1[C@@H]2[C@@H](O)C[C@@]2(C)[C@H]1CC[C@]2(O)C(=O)CSc1ccc2ccccc2n1 | 0 | 21
17 | 22 | 32 | – | 13.5 | – | 26 | C[C@]12C=CC(=O)C=C1CC[C@@H]1[C@@H]2[C@@H](O)C[C@@]2(C)[C@H]1CC[C@]2(O)C(=O)CSc1nc2ccccc2o1 | – | –
18 | 30 | 8 | – | 23.5 | – | – | C[C@@H]1C[C@H]2[C@@H]3CCC4=CC(=O)C=C[C@]4(C)[C@H]3[C@@H](O)C[C@]2(C)[C@@]1(O)C(=O)CSc1ncnc2ccccc12 | – | –
19 | 32 | 37 | – | 6 | 135 | – | C[C@@H]1C[C@H]2[C@@H]3CCC4=CC(=O)C=C[C@]4(C)[C@H]3[C@@H](O)C[C@]2(C)[C@@]1(O)C(=O)CSc1nc2ncccc2o1 | – | –
20 | – | – | – | 4.4 | – | – | C[C@@H]1C[C@H]2[C@@H]3CCC4=CC(=O)C=C[C@]4(C)[C@H]3[C@@H](O)C[C@]2(C)[C@@]1(O)C(=O)CSc1nc2ccccc2o1 | – | –
21 | 13 | 2 | – | 69.3 | – | – | C[C@@H]1C[C@H]2[C@@H]3CCC4=CC(=O)C=C[C@]4(C)[C@H]3[C@@H](O)C[C@]2(C)[C@@]1(O)C(=O)CSc1nc2ccccc2n1C | – | –
22 | 7 | 2 | – | 57.2 | – | – | C[C@]12C=CC(=O)C=C1CC[C@@H]1[C@@H]2[C@@H](O)C[C@@]2(C)[C@H]1CC[C@]2(O)C(=O)CSc1nc2ncccc2[nH]1 | – | –
23 | 27 | 13 | 722 | 7 | 24.1 | 11900 | C[C@@H]1C[C@H]2[C@@H]3CCC4=CC(=O)C=C[C@]4(C)[C@H]3[C@@H](O)C[C@]2(C)[C@@]1(O)C(=O)CSc1nc2cccnc2s1 | 75 | 75

Row | SMILES | Efficacy (Glucocorticoid receptor [1]) [%] | Emax at 1 µM (Glucocorticoid receptor [2]) [%] | EC50 (Glucocorticoid receptor [3]) [nM] | IC50 (Glucocorticoid receptor [4]) [nM] | EC50 (Glucocorticoid receptor [5]) [nM] | AUC [6] [ng·h/mL] | Activity (Rattus norvegicus [7]) [%] | Activity (Rattus norvegicus [8]) [%]
24 | C[C@@H]1C[C@H]2[C@@H]3CCC4=CC(=O)C=C[C@]4(C)[C@H]3[C@@H](O)C[C@]2(C)[C@@]1(O)C(=O)CO | 125 | – | 15.7 | 1.6 | – | – | – | –

From ChEMBL document CHEMBL1938296, “Steroidal C-21 heteroaryl thioethers (Part 2): discovery of orally bioavailable selective glucocorticoid receptor modulators (dissociated steroids)” (Bioorg Med Chem Lett, 2012)
